Results: patent US7304093B2, “Ketone compounds and compositions for cholesterol management and related uses” (Esperion Therapeutics, Inc., priority 2000, dated 2007)
Read-outs that look alike come from different tables or passages of the source.

How the values were obtained:
primary rat hepatocytes = test: Inhibition of lipid synthesis ([1-14C]-acetate incorporation) in primary cultures of rat hepatocytes; type: cell-based; details: Hepatocyte, 4 h incubation with [1-14C]-acetate
Procedure: Compounds were tested for inhibition of lipid synthesis in primary cultures of rat hepatocytes. Male Sprague-Dawley rats were anesthetized with intraperitoneal injection of sodium pentobarbital (80 mg/kg). Rat hepatocytes were isolated essentially as described by the method of Seglen (Seglen, P. O. Hepatocyte suspensions and cultures as tools in experimental carcinogenesis. J. Toxicol. Environ. Health 1979, 5, 551-560). Hepatocytes were suspended in Dulbecco's Modified Eagles Medium containing 25 mM D-glucose, 14 mM HEPES, 5 mM L-glutamine, 5 mM leucine, 5 mM alanine, 10 mM lactate, 1 mM pyruvate, 0.2% bovine serum albumin, 17.4 mM non-essential amino acids, 20% fetal bovine serum, […] and 20 μg/mL gentamycin) and plated at a density of 1.5×10^5 cells/cm^2 on collagen-coated 96-well plates. Four hours after plating, media was replaced with the same media without serum. Cells were grown overnight to allow formation of monolayer cultures. Lipid synthesis incubation conditions were initially assessed to ensure the linearity of [1-^14C]-acetate incorporation into hepatocyte lipids for up to 4 hours. Hepatocyte lipid synthesis inhibitory activity was assessed during incubations in the presence of 0.25 μCi [1-^14C]-acetate/well (final radiospecific activity in assay is 1 Ci/mol) and 0, 1, 3, 10, 30, 100 or 300 μM of compounds for 4 hours. At the end of the 4-hour incubation period, medium was discarded and cells were washed twice with ice-cold phosphate buffered saline and stored frozen prior to analysis. To determine total lipid synthesis, 170 μl of MicroScint-E® and 50 μl water was added to each well to extract and partition the lipid soluble products to the upper organic phase containing the scintillant. Lipid radioactivity was assessed by scintillation spectroscopy in a Packard TopCount NXT.

female obese Zucker rats = test: Serum lipid and glycemic control variables in chow-fed obese female Zucker rats, daily oral gavage for two weeks; type: in vivo, rat; details: Rattus norvegicus, Table 9; for change in vivo at 100 mg/kg: 100 mg/kg daily oral; for change in vivo at 30 mg/kg: 30 mg/kg daily oral
Procedure: Ten- to twelve-week old (400-500 grams) female Zucker fatty rats Cr1: (Zuc)-faBR were obtained from Charles River Laboratories. Animals were acclimated to the laboratory environment for seven days. During the acclimation and study period, animals were housed by group in shoebox polycarbonate cages on Cellu-Dri bedding. The temperature and humidity in the animals' quarters (68-78° F.; 30-75% RH) were monitored and the airflow in the room was sufficient to provide several exchanges per hour with 100% fresh filtered air. An automatic timing device provided an alternating 12-hour cycle of light and dark. Rats received pelleted Purina Laboratory Rodent Chow® (5001) prior to and during the drug intervention period except for a 6-hour phase prior to blood sampling. Fresh water was supplied ad libitum via an automatic watering system. Compounds were dissolved, suspended by mixing in a dosing vehicle consisting of 1.5% carboxymethylcellulose/0.2% Tween 20 or 20% ethanol and 80% polyethylene glycol-200 [v/v]. Dose volume of vehicle or vehicle plus each compound was set at 0.25% of body weight in order to deliver the appropriate dose. Doses were administered daily by oral gavage, approximately between 8-10 AM. Regarding blood sampling, animals were fasted for 6 hours prior to all blood collections. Prior to and after 7 days of dosing, a 1.0- to 2.0-mL sample of blood was collected by administering O2/CO2 anesthesia and bleeding from the orbital venous plexus. Following 14 days of dosing, blood was collected by cardiac puncture after euthanasia with CO2. All blood samples were processed for separation of serum and stored at −80° C. until analysis. Commercially available kits were used to determine serum triglycerides (Roche Diagnostic Corporation, Kit No. 148899 or Boehringer Mannheim, Kit No. 1488872), total cholesterol (Roche Diagnostic Corporation, Kit No. 450061), non-esterified fatty acids (Wako Chemicals, Kit No. 994-75409) and β-hydroxybutyrate (Wako Chemicals, Kit No. 417-73501 or Sigma Kit. No. 310-0) on a Hitachi 912 Automatic Analyzer (Roche Diagnostic Corporation). In some instances, an in-house cholesterol reagent was used to determine total serum cholesterol levels. Serum lipoprotein cholesterol levels were determined by lipoprotein profile analysis. Lipoprotein profiles were analyzed using gel-filtration chromatography on a Superose 6HR (1×30 cm) column equipped with on-line detection of total cholesterol as described by Kieft et al (Kieft, K. A.; Bocan, T. M.; Krause, B. R. Rapid on-line determination of cholesterol distribution among plasma lipoproteins after high-performance gel filtration chromatography. J. Lipid Res. 1991, 32, 859-866.). The total cholesterol content of each lipoprotein was calculated by multiplying the independent values determined for serum total cholesterol by the percent area of each lipoprotein in the profile. The percent body weight gain and the ratio of liver to body weight is also determined. Selected data are shown as absolute values or as a percent change of the pretreatment values in Tables 8 and 9.
Select compounds (214c, 210c, and 210g) were further evalutated in the Zucker rat by performing a full dose response and measuring additional scrum variables including markers for diabetes (Tables 10-12).

[1] = Table 7, ranges: confidence of estimate insufficient to assign a value
[2] = 168 h, 1 wk, read-out: HDL-Cholesterol, Percent Change from Pre-Treatment
[3] = 168 h, 1 wk, read-out: NonHDL-Cholesterol, Percent Change from Pre-Treatment
[4] = 168 h, 1 wk, read-out: TG, Percent Change from Pre-Treatment
[5] = 336 h, 2 wk, read-out: HDL-Cholesterol, Percent Change from Pre-Treatment
[6] = 336 h, 2 wk, read-out: NonHDL-Cholesterol, Percent Change from Pre-Treatment
[7] = 336 h, 2 wk, read-out: TG, Percent Change from Pre-Treatment

Row | SMILES | IC50 (primary rat hepatocytes; [1]) | change in vivo at 100 mg/kg (female obese Zucker rats; [2]) | change in vivo at 100 mg/kg (female obese Zucker rats; [3]) | change in vivo at 100 mg/kg (female obese Zucker rats; [4]) | change in vivo at 100 mg/kg (female obese Zucker rats; [5]) | change in vivo at 100 mg/kg (female obese Zucker rats; [6]) | change in vivo at 100 mg/kg (female obese Zucker rats; [7]) | IC50 (primary rat hepatocytes; Table 6) | change in vivo at 30 mg/kg (female obese Zucker rats; [2]) | change in vivo at 30 mg/kg (female obese Zucker rats; [3]) | change in vivo at 30 mg/kg (female obese Zucker rats; [4]) | change in vivo at 30 mg/kg (female obese Zucker rats; [5]) | change in vivo at 30 mg/kg (female obese Zucker rats; [6]) | change in vivo at 30 mg/kg (female obese Zucker rats; [7])
1 | CC(C)(CO)CCCCCC(=O)CCCCCC(C)(C)CO [Compound 214g, 1,15-Dihydroxy-2,2,14,14-tetramethylpentadecan-8-one] | 3 µM | 76% | -91% | -92% | 135% | -88% | -92% |  |  |  |  |  |  | 
2 | CC(C)(CO)CCCC(=O)CCCC(C)(C)CO [Compound 214a, 1,11-Dihydroxy-2,2,10,10-tetramethylundecan-6-one] | 27 µM | 24% | -23% | -31% | 2% | 28% | 0% |  |  |  |  |  |  | 
3 | CCOC(=O)C(C)(C)CCCCCCCC(=O)CCCCCCCC(C)(C)C(=O)OCC [Compound 106n, Diethyl 10-oxo-2,2,18,18-tetramethyl-nonadecanedioate] |  |  |  |  |  |  |  | 13 µM |  |  |  |  |  | 
4 | CC(CO)(CCCC(=O)CCCC(C)(CO)c1ccccc1)c1ccccc1 (centres unmarked) [Compound 214b, 1,11-Dihydroxy-2,10-dimethyl-2,10-diphenylundecan-6-one] | 100 to 300 µM | -14% | -18% | -20% | -11% | -32% | -17% |  |  |  |  |  |  | 
5 | Cc1ccc(C(C)(CO)CCCCC(=O)CCCCC(C)(CO)c2ccc(C)cc2)cc1 (centres unmarked) [Compound 214e, 1,13-Dihydroxy-2,12-dimethyl-2,12-di-p-tolyltridecan-7-one] | 100 to 300 µM |  |  |  |  |  |  |  |  |  |  |  |  | 
6 | CC(C)(C)OC(=O)C1(CCCCC(=O)CCCCC2(C(=O)OC(C)(C)C)CC2)CC1 [Compound 106d, t-Butyl 1-[9-[1-(tert-butoxycarbonyl)cyclopropyl]-5-oxononyl]-1-cyclopropanecarboxylate] |  |  |  |  |  |  |  | 35 µM |  |  |  |  |  | 
7 | CC(C)Cc1ccc(C(C)(CCCCC(=O)CCCCC(C)(C(=O)O)c2ccc(CC(C)C)cc2)C(=O)O)cc1 (centres unmarked) [Compound 210f, 2,12-Bis-(4-isobutylphenyl)-2,12-dimethyl-7-oxotridecanedioic acid] | 100 to 300 µM | 11% | -40% | -63% | 62% | -44% | -66% |  |  |  |  |  |  | 
8 | CC(C)(CO)CCCCC(=O)CCCC(C)(C)CO [Compound 217, 1,12-Dihydroxy-2,2,11,11-tetramethyldodecan-6-one] | 3 to 10 µM | 46% | -26% | -40% | 48% | 4% | -11% |  |  |  |  |  |  | 
9 | CC(C)(CO)CCCCCC(=O)CCCCC(C)(C)CO [Compound 219, 1,14-Dihydroxy-2,2,13,13-tetramethyltetradecan-7-one] | 2 µM | 78% | -70% | -85% | 78% | -78% | -87% |  |  |  |  |  |  | 
10 | CC(C)(CO)Cc1cccc(C(=O)c2cccc(CC(C)(C)CO)c2)c1 [Compound 232, Bis[3-(3-hydroxy-2,2-dimethylpropyl)-phenyl]-methanone] | 52 µM | 1% | -15% | -29% | -11% | -5% | -8% |  |  |  |  |  |  | 
11 | CC(C)(CO)CCCCCCC(=O)CCCCCCC(C)(C)CO [Compound 214i, 1,17-Dihydroxy-2,2,16,16-tetramethylheptadecan-9-one] | 2 µM |  |  |  |  |  |  |  | 85% | -50% | -58% | 61% | -32% | -33%
12 | CC(CO)(CCCCCC(=O)CCCCCC(C)(CO)c1ccccc1)c1ccccc1 (centres unmarked) [Compound 214h, 1,15-Dihydroxy-2,14-dimethyl-2,14-diphenylpentadecan-8-one] | 93 µM | 2% | 29% | 24% | 10% | 9% | 1% |  |  |  |  |  |  | 
13 | CC(C)(CO)CCCCC(=O)CCCCC(C)(CO)c1ccccc1 (centres unmarked) [Compound 218, 1,13-Dihydroxy-2,2,12-trimethyl-12-phenyltridecan-7-one] | 1 µM |  |  |  |  |  |  |  | -18% | 17% | 18% | -5% | -8% | -7%
14 | CC(CCCCC(=O)CCCCC(C)(C(=O)O)c1ccccc1)(C(=O)O)c1ccccc1 (centres unmarked) [Compound 210d, 2,12-Dimethyl-7-oxo-2,12-diphenyltridecanedioic acid] |  | 43% | 36% | -36% | 45% | 79% | -8% |  |  |  |  |  |  | 
15 | CC(C)(CCCCCCC(=O)CCCCCCC(C)(C)C(=O)O)C(=O)O [Compound 210i, 2,2,16,16-Tetramethyl-9-oxoheptadecanedioic acid] | 9 µM |  |  |  |  |  |  |  |  |  |  |  |  | 
16 | CC(C)Cc1ccc(C(C)(CO)CCCCC(=O)CCCCC(C)(CO)c2ccc(CC(C)C)cc2)cc1 (centres unmarked) [Compound 214f, 1,13-Dihydroxy-2,12-bis-(4-isobutylphenyl)-2,12-dimethyltridecan-7-one] |  | -5% | 28% | -11% | 6% | 34% | -15% |  |  |  |  |  |  | 
